Laboratory results from the supplement of paper PMC10307832.

Compound: CC(C)CCN1c2nc(Nc3cc(F)c(O)c(F)c3)ncc2N(C)C(=O)C1C [BI-D1870] + CC1(C)CCC(c2ccc(Cl)cc2)=C(CN2CCN(c3ccc(C(=O)NS(=O)(=O)c4ccc(N[C@H](CCN5CCOCC5)CSc5ccccc5)c(S(=O)(=O)C(F)(F)F)c4)cc3)CC2)C1 [Navitoclax] (partner 0.5 µM)
Assay: relative viability (nuclei count vs DMSO), 5 days (fraction); higher = more cells survive
Details: first compound 0.04 µM
In short: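 Relative viability equals treated-well nuclei counts divided by vehicle-well nuclei counts. Counts came from 4× images of lung cancer cell lines grown in 1536-well plates for 5 days after pin-tool dosing on the day after seeding. Dosing used one drug alone or a fixed anchor-drug dose plus five library-drug doses (not always all listed) in √10 steps, and values are medians of duplicate plates.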

Cell Line	relative viability
COR-L23	1.15
COR-L 105	0.863
LOU-NH91	0.854
ChaGo-K-1	0.94
NCI-H2170	0.608
NCI-H2405	1.17
HOP-62	1.06
LU99A	0.805
BEN	0.0563
HARA	1.2
HCC-78	0.736
NCI-H322M	1.22
LCLC-97TM1	0.407
NCI-H2009	1.22
A-427	1.1
NCI-H441	0.478
NCI-H1734	0.875
NCI-H460	1.24
NCI-H2347	0.778
SK-LU-1	1
NCI-H1395	1.16
201T	1.18
NCI-H1915	0.822
HCC-827	1.07
LXF-289	0.951
NCI-H23	1.15
NCI-H647	1.27

Same assay, conditions: first compound 0.1265 µM

Cell Line	relative viability
COR-L23	0.951
COR-L 105	0.673
LOU-NH91	0.631
ChaGo-K-1	0.976
NCI-H2170	0.524
NCI-H2405	0.774
HOP-62	1.01
LU99A	0.744
BEN	0.0674
HARA	1.13
HCC-78	0.825
NCI-H322M	1.19
LCLC-97TM1	0.398
NCI-H2009	1.12
A-427	0.958
NCI-H441	0.575
NCI-H1734	0.757
NCI-H460	1.09
NCI-H2347	0.914
SK-LU-1	1.09
NCI-H1395	1.12
201T	1.18
NCI-H1915	0.763
HCC-827	1.03
LXF-289	0.923
NCI-H23	0.741
NCI-H647	0.978

Same assay, conditions: first compound 0.4 µM

Cell Line	relative viability
COR-L23	1.06
COR-L 105	0.761
LOU-NH91	0.721
ChaGo-K-1	0.808
NCI-H2170	0.578
NCI-H2405	0.977
HOP-62	0.995
LU99A	0.798
BEN	0.0746
HARA	1.16
HCC-78	0.81
NCI-H322M	1.44
LCLC-97TM1	0.574
NCI-H2009	1.15
A-427	0.922
NCI-H441	0.692
NCI-H1734	0.842
NCI-H460	1.08
NCI-H2347	0.617
SK-LU-1	0.852
NCI-H1395	1.36
201T	1.19
NCI-H1915	0.803
HCC-827	1.02
LXF-289	0.94
NCI-H23	0.792
NCI-H647	1.08

Same assay, conditions: first compound 1.265 µM

Cell Line	relative viability
COR-L23	1.1
COR-L 105	0.997
LOU-NH91	0.662
ChaGo-K-1	1.03
NCI-H2170	0.514
NCI-H2405	0.844
HOP-62	1.2
LU99A	0.961
BEN	0.383
HARA	1.23
HCC-78	0.987
NCI-H322M	1.06
LCLC-97TM1	0.364
NCI-H2009	1.09
A-427	0.997
NCI-H441	0.642
NCI-H1734	0.849
NCI-H460	0.407
NCI-H2347	0.975
SK-LU-1	0.54
NCI-H1395	1.01
201T	1.23
NCI-H1915	0.815
HCC-827	1.02
LXF-289	0.936
NCI-H23	0.891
NCI-H647	1.04

Same assay, conditions: first compound 4 µM

Cell Line	relative viability
COR-L23	0.479
COR-L 105	0.75
LOU-NH91	0.522
ChaGo-K-1	0.654
NCI-H2170	0.496
NCI-H2405	0.671
HOP-62	1.01
LU99A	0.911
BEN	0.0789
HARA	1.08
HCC-78	0.778
NCI-H322M	1.07
LCLC-97TM1	0.613
NCI-H2009	0.865
A-427	0.999
NCI-H441	0.338
NCI-H1734	0.81
NCI-H460	0.0595
NCI-H2347	0.54
SK-LU-1	0.0905
NCI-H1395	0.871
201T	1.19
NCI-H1915	0.746
HCC-827	0.941
LXF-289	0.895
